Experimental data taken from patent US20070027205A1, “Diarylmethyl derivatives as potassium channel modulators” (priority 2003, published 2007).
pKi: −log10 of the molar value.

Target: T1, human intermediate-conductance Ca2+-activated K+ channels (hIK channels) (Homo sapiens, UniProt O15554)
T1 construct: expressed in transfected cells
Assay: Block of IK channels, whole-cell patch-clamp
Type: cell-based
Settings: hIK cloned from human placenta, stably expressed in HEK293 cells; Ki = koff/kon from kinetics of the block
Procedure: In this example the ability of the compounds of the invention to inhibit human intermediate-conductance Ca^2+-activated K^+ channels (hIK channels) is examined.
hIK channels have been cloned from human placenta and stably expressed in HEK293 cells. The ionic current through the channels is recorded in the whole-cell mode of the patch-clamp technique.
A Ki value is calculated from the kinetics of the block.
The inhibition of the current is assumed to occur by a simple drug (D)−receptor (R) interaction after the following scheme: [drawing 3]
This is a simple bimolecular reaction, which integrated under non-equalibrium conditions are described by the equation: It=I0*(1−(C/C+(koff/kon)))*(1−exp(−(C* kon+koff)*t))) • wherein, • It=current at time t in nA • koff=off-rate in s^−1 • I0=basal current in nA • kon=on-rate in M^−1s^−1 • C=drug concentration in μM
By using the equation above, a fit to the time-course of the decrease in current yields the values koff and kon. Ki equals the ratio koff/kon, and Ki is the test value to be reported. At t=∞ (equalibrium) the equation simplifies to the Michaelis-Menten equation with Ki=IC50.

SMILES	pKi
N#CC(CC(=O)O)(c1ccc(F)cc1)c1ccc(F)cc1 [Compound 2, 3-Cyano-3,3-bis-(4-fluoro-phenyl)-propionic acid]	5.66
CCOC(=O)CCC(C#N)(c1ccc(F)cc1)c1ccc(F)cc1 [Compound 4, Ethyl 4-cyano-4,4-bis-(4-fluoro-phenyl) butyrate]	5.85
NC(CSC(c1ccc(F)cc1)(c1ccc(F)cc1)c1ccccc1F)=NO [Compound 6, 2-[(2-Fluoro-phenyl)-bis-(4-fluoro-phenyl)-methanesulfanyl]-N-hydroxy acetamidine]	6.28
N#CC(Cc1ccccn1)(c1ccc(F)cc1)c1ccc([N+](=O)[O-])c(C(F)(F)F)c1 (stereo not shown) [Compound 8, 2-(4Fluoro-phenyl)-2-(4-nitro-3-trifluoromethyl-phenyl)-3-pyridin-2-yl-propionitrile]	7.19
